This assay deals with T1, mGlyT-1b (Mus musculus, UniProt P28571).
T1 construct: host or cells: Flp-in-CHO cells, stably transfected
T1 sequence (P28571 1-651 isoform P28571-2): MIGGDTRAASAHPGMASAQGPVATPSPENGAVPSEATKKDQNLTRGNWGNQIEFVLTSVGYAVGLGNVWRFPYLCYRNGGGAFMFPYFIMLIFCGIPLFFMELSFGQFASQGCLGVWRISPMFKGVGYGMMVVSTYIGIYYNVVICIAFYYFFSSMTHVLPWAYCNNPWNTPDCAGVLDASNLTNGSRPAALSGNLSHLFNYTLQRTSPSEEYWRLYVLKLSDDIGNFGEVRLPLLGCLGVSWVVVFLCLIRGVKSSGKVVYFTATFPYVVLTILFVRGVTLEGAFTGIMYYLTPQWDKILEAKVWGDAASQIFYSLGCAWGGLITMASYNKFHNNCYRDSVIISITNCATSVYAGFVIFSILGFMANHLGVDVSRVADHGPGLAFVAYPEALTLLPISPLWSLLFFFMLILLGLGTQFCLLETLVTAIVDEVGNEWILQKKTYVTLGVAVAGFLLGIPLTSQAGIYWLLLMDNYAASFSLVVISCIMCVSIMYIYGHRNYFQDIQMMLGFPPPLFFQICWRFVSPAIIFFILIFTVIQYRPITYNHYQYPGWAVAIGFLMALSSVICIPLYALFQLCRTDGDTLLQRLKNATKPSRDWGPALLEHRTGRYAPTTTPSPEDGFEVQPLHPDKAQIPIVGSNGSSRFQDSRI
Nature of the assay: Glycine Uptake Inhibition Assay (mGlyT-1b). It counts as cell-based. Particulars: [3H]-glycine uptake in Flp-in-CHO cells stably transfected with mGlyT-1b cDNA; 20 min preincubation at 22° C. The protocol:
DMEM complete medium: Nutrient mixture F-12 (Gibco Life-technologies), fetal bovine serum (FBS) 5%, (Gibco life technologies), Penicillin/Streptomycin 1% (Gibco life technologies), Hygromycin 0.6 mg/ml (Gibco life technologies), Glutamine 1 mM Gibco life technologies) Uptake buffer (UB): 150 mM NaCl, 10 mM Hepes-Tris, pH 7.4, 1 mM CaCl2, 2.5 mM KCl, 2.5 mM MgSO4, 10 mM (+) D-glucose. Flp-in™-CHO (Invitrogen Cat n° R758-07) cells stably transfected with mGlyT1b cDNA.
Glycine Uptake Inhibition Assay (mGlyT-1b)
On day 1 mammalian cells, (Flp-in™-CHO), transfected with mGlyT-1b cDNA, were plated at the density of 40,000 cells/well in complete F-12 medium, without hygromycin in 96-well culture plates. On day 2, the medium was aspirated and the cells were washed twice with uptake buffer (UB). The cells were then incubated for 20 min at 22° C. with either (i) no potential competitor, (ii) 10 mM non-radioactive glycine, (iii) a concentration of a potential inhibitor. A range of concentrations of the potential inhibitor was used to generate data for calculating the concentration of inhibitor resulting in 50% of the effect (e.g. IC50, the concentration of the competitor inhibiting glycine uptake of 50%). A solution was then immediately added containing [^3H]-glycine 60 nM (11-16 Ci/mmol) and 25 μM non-radioactive glycine. The plates were incubated with gentle shaking and the reaction was stopped by aspiration of the mixture and washing (three times) with ice-cold UB. The cells were lysed with scintillation liquid, shaken 3 hours and the radioactivity in the cells was counted using a scintillation counter.
One may read the IC50 as the point on the concentration scale where inhibition reaches its midpoint. Higher therefore signals a need for much substance. `COc1cc(C(F)(F)F)cc(C)c1C(=O)N[C@@]1(c2ccccc2)CC[C@@H]2CC[C@H]1N2C` (stereo in doubt) [Example 9, 2-Methoxy-6-methyl-N-((1R,2R,5S) or (1S,2S,5R)-8-methyl-2-phenyl-8-aza-bicyclo[3.2.1]oct-2-yl)-4-trifluoromethyl-benzamide] gave an IC50 of 0.02 µM.
With `CCc1cc(C(F)(F)F)ccc1C(=O)N[C@]1(c2ccccc2)CC[C@H]2CC[C@@H]1N2C` (stereo in doubt) [Example 5, 2-Ethyl-N-((1S,2S,5R) or (1R,2R,5S)-8-methyl-2-phenyl-8-aza-bicyclo[3.2.1]oct-2-yl)-4-trifluoromethyl-benzamide], inhibition was half-maximal at 0.019 µM (IC50).
As for `CN1[C@H]2CC[C@@H]1[C@](NC(=O)c1ccc(C(F)(F)F)cc1C1CC1)(c1ccccc1)CC2` (racemic) [Example 4, 2-Cyclopropyl-N-((1RS,2RS,5SR)-8-methyl-2-phenyl-8-aza-bicyclo[3.2.1]oct-2-yl)-4-trifluoromethyl-benzamide], the concentration for half-maximal inhibition (IC50) was 0.008 µM.
On to `COc1cc(C(F)(F)F)cc(SC)c1C(=O)N[C@]1(c2ccccc2)CC[C@H]2CC[C@@H]1N2C` [Example 2, 2-Methoxy-N-((1S,2S,5R)-8-methyl-2-phenyl-8-aza-bicyclo[3.2.l]oct-2-yl)-6-methylsulfanyl-4-trifluoromethyl-benzamide], for which it took 0.021 µM to reach half-maximal inhibition (IC50).
In the case of `COc1cc(C(F)(F)F)cc(SC)c1C(=O)N[C@@]1(c2ccccc2)CC[C@@H]2CC[C@H]1N2C` (racemic) [Example 1, 2-Methoxy-N-((1RS,2RS,5SR)-8-methyl-2-phenyl-8-aza-bicyclo[3.2.1]oct-2-yl)-6-methylsulfanyl-4-trifluoromethyl-benzamide], 0.014 µM corresponded to half-maximal inhibition (IC50). This IC50 is about 1.5-fold lower than that of the compound before.
In the case of `COc1cc(C(F)(F)F)cc(C)c1C(=O)N[C@]1(c2ccccc2)CC[C@H]2CC[C@@H]1N2C` (stereo in doubt) [Example 8, 2-Methoxy-6-methyl-N-((1S,2S,5R) or (1R,2R,5S)-8-methyl-2-phenyl-8-aza-bicyclo[3.2.1]oct-2-yl)-4-trifluoromethyl-benzamide], the IC50 came to 0.02 µM.
The compound `COc1cc(C(F)(F)F)cc(C2CC2)c1C(=O)N[C@]1(c2ccccc2)CC[C@H]2CC[C@@H]1N2C` (stereo in doubt) [Example 11, 2-Cyclopropyl-6-methoxy-N-((1S,2S,5R) or (lR,2R.5S)-8-methyl-2-phenyl-8-aza-bicyclo[3.2.1]oct-2-yl)-4-trifluoromethyl-benzamide] yielded an IC50 of 0.006 µM. This IC50 is about 3.3-fold lower than that of the compound before.
With `CCc1cc(C(F)(F)F)ccc1C(=O)N[C@@]1(c2ccccc2)CC[C@@H]2CC[C@H]1N2C` (stereo in doubt) [Example 6, 2-Ethyl-N-((1R,2R,5S) or (1S,2S,5R)-8-methyl-2-phenyl-8-aza-bicyclo[3.2.1]oct-2-yl)-4-trifluoromethyl-benzamide], it took 0.031 µM to reach half-maximal inhibition (IC50).
For `COc1cc(C(F)(F)F)cc(C2CC2)c1C(=O)N[C@@]1(c2ccccc2)CC[C@@H]2CC[C@H]1N2C` (stereo in doubt) [Example 10, 2-Cyclopropyl-6-methoxy-N-((1RS,2RS,5SR)-8-methyl-2-phenyl-8-aza-bicyclo[3.2.1]oct-2-yl)-4-trifluoromethyl-benzamide], the IC50 turned out to be 0.004 µM.
Consider `COc1cc(C(F)(F)F)cc(SC)c1C(=O)N[C@@]1(c2ccccc2)CC[C@@H]2CC[C@H]1N2C` (racemic) [Example 3, 2-Methoxy-N-((1R,2R,5S)-8-methyl-2-phenyl-8-aza-bicyclo[3.2.1]oct-2-yl)-6-methylsulfanyl-4-trifluoromethyl-benzamide], for which half-maximal inhibition (IC50) was put at 0.008 µM.
With `CCc1cc(C(F)(F)F)cc(OC)c1C(=O)N[C@@]1(c2ccccc2)CC[C@@H]2CC[C@H]1N2C` (racemic) [Example 13, 2-Ethyl-6-methoxy-N-((1RS,2RS,5SR)-8-methyl-2-phenyl-8-aza-bicyclo[3.2.1]oct-2-yl)-4-trifluoromethyl-benzamide], the midpoint of inhibition, the IC50, lay at 0.014 µM.
The compound `COc1cc(C(F)(F)F)cc(C2CC2)c1C(=O)N[C@@]1(c2ccccc2)CC[C@@H]2CC[C@H]1N2C` (stereo in doubt) [Example 12, 2-Cyclopropyl-6-methoxy-N-((1R,2R,5S) or (1S,2S,5R)-8-methyl-2-phenyl-8-aza-bicyclo[3.2.1]oct-2-yl)-4-trifluoromethyl-benzamide] displayed an IC50 of 0.006 µM.
Under `COc1cc(C(F)(F)F)cc(C)c1C(=O)N[C@@]1(c2ccccc2)CC[C@@H]2CC[C@H]1N2C` (stereo in doubt) [Example 7, 2-Methoxy-6-methyl-N-((1RS,2RS,5SR)-8-methyl-2-phenyl-8-aza-bicyclo[3.2.1]oct-2-yl)-4-trifluoromethyl-benzamide] stands 0.006 µM.
